Data from PubChem BioAssay AID1259408 (Genetic Toxicology Data Bank (GENE-TOX), 2018).
Activity calls are given as the source filed them. The rule behind the calls is not given here.

Test system: GENE-TOX genotoxicity assays, various organisms and cells
Test: GENE-TOX mutagenicity studies
Conditions: for call: Assay Type: In vivo carcinogenicity studies, Assay Code: CCG+
Description: GENE-TOX provides genetic toxicology (mutagenicity) test data from expert peer review of open scientific literature for more than 3,000 chemicals from the United States Environmental Protection Agency (EPA). GENE-TOX was established to select assay systems for evaluation, review data in the scientific literature, and recommend proper testing protocols and evaluation procedures for these systems.
GENE-TOX covers the years 1991 - 1998. It is no longer updated.
This is an archive assay for GENE-TOX mutagenicity studies.

[1] = Species/Cell Type: Human lymphocytes, Assay Type: Sister-chromatid exchange (SCE) in vitro, Assay Code: SCL+D, Dose Response: With dose response, Evaluation Type: Evaluation B (Post-1980)
[2] = Species/Cell Type: Human lymphocytes, Assay Type: Sister-chromatid exchange (SCE) in vitro, Assay Code: SCLT, Evaluation Type: Evaluation B (Post-1980)
[3] = Species/Cell Type: Human, Assay Type: Sister-chromatid exchange (SCE) in vitro, Assay Code: SC1+D, Dose Response: With dose response, Evaluation Type: Evaluation B (Post-1980)
[4] = Species/Cell Type: Human, Assay Type: Sister-chromatid exchange (SCE) in vitro, Assay Code: SC1T, Evaluation Type: Evaluation B (Post-1980)
[5] = Species/Cell Type: Drosophila melanogaster, Assay Type: Sex-linked recessive lethal gene mutation, Assay Code: SRL+, Evaluation Type: Evaluation A (Pre-1980)
[6] = Species/Cell Type: Saccharomyces cerevisiae, Assay Type: Mitotic recombination or gene conversion, Assay Code: YEC+, Evaluation Type: Evaluation A (Pre-1980)
[7] = Species/Cell Type: Drosophila melanogaster, Assay Type: Sex-linked recessive lethal gene mutation, Assay Code: SRLT, Evaluation Type: Evaluation A (Pre-1980)
[8] = Species/Cell Type: Mammalian polychromatic erythrocytes, Assay Type: Micronucleus test, chromosome aberrations, Assay Code: MNTT, Evaluation Type: Evaluation B (Post-1980)
[9] = Species/Cell Type: Salmonella typhimurium (one or more of the five standard strains: TA98, TA100, TA1535, TA1537, and TA1538), Assay Type: Histidine reverse gene mutation, Ames assay, Assay Code: SAL+*, Activation: With metabolic activation, Evaluation Type: Evaluation A (Pre-1980)
[10] = Species/Cell Type: Bacillus subtilis (H17 vs M45), Assay Type: Rec-assay, spot test, DNA effects (bacterial DNA repair), Assay Code: REWT, Evaluation Type: Evaluation A (Pre-1980)
[11] = Species/Cell Type: Human diploid fibroblasts, Assay Type: Unscheduled DNA synthesis (UDS) in vitro, DNA effects, Assay Code: UDH-, Evaluation Type: Evaluation A (Pre-1980)
[12] = Species/Cell Type: Saccharomyces cerevisiae, Assay Type: Mitotic recombination or gene conversion, Assay Code: YEH-, Evaluation Type: Evaluation A (Pre-1980)
[13] = Species/Cell Type: Salmonella typhimurium (one or more of the five standard strains: TA98, TA100, TA1535, TA1537, and TA1538), Assay Type: Histidine reverse gene mutation, Ames assay, Assay Code: SAL-, Evaluation Type: Evaluation A (Pre-1980)
[14] = Species/Cell Type: Nonhuman, Evaluation Type: Evaluation A (Pre-1980)
[15] = Species/Cell Type: Escherichia coli polA (W3119 vs P3478), Assay Type: Rec-assay, DNA effects (bacterial DNA repair), Assay Code: RE1-, Evaluation Type: Evaluation A (Pre-1980)

c1ccc2c(c1)[nH]c1cnccc12
mutagenic call [1]: active; positive | mutagenic call [2]: no conclusion | mutagenic call [3]: active; positive | mutagenic call [4]: no conclusion

Cc1c2ccccc2c(C)c2c1ccc1cccc(F)c12
mutagenic call (Species/Cell Type: Chinese hamster lung (V79) cells, Assay Type: Forward gene mutation at the HPRT or ouabain locus, Assay Code: V79-*, Activation: With metabolic activation, Evaluation Type: Evaluation A (Pre-1980)): inactive; negative

CCC(C)I (centres undefined)
mutagenic call (Species/Cell Type: Escherichia coli polA (W3119 vs P3478), Assay Type: Rec-assay, DNA effects (bacterial DNA repair), Assay Code: RE1+, Evaluation Type: Evaluation A (Pre-1980)): active; positive

O=[N+]([O-])c1ccc(Oc2c(Cl)cc(Cl)cc2Cl)cc1
mutagenic call (Species/Cell Type: Mammalian polychromatic erythrocytes, Assay Type: Micronucleus test, chromosome aberrations, Assay Code: MNTT, Evaluation Type: Evaluation A (Pre-1980)): no conclusion

COc1ccc2nc3cc(Cl)ccc3c(NCCNCCCl)c2c1
mutagenic call (Species/Cell Type: Chinese hamster ovary (CHO) cells, Assay Type: Forward gene mutation at the HPRT locus, Assay Code: CHO+, Evaluation Type: Evaluation B (Post-1980)): active; positive

O=NN(CCCl)C(=O)NCCCCNC(=O)N(CCCl)N=O
mutagenic call [5]: active; positive | mutagenic call [6]: active; positive

CN=NNc1c(Cl)cc(Cl)cc1Cl
mutagenic call [7]: no conclusion

CCCCCCCCCCCCCCCCCCN(CCO)CCCN(CCO)CCO
mutagenic call [8]: no conclusion

Cc1cc(/C=C/c2ccc3cc(N(C)C)ccc3[n+]2C)c(C)n1-c1ccccc1
mutagenic call (Species/Cell Type: Nonhuman, Assay Type: Sister-chromatid exchange (SCE) in vitro, Assay Code: SC2+, Evaluation Type: Evaluation B (Post-1980)): active; positive | mutagenic call [9]: active; positive

CCOP(=S)(OCC)SCSP(=S)(OCC)OCC
mutagenic call [10]: no conclusion | mutagenic call (Species/Cell Type: Escherichia coli polA (W3119 vs P3478), Assay Type: Rec-assay, DNA effects (bacterial DNA repair), Assay Code: RE1T, Evaluation Type: Evaluation A (Pre-1980)): no conclusion | mutagenic call [11]: inactive; negative | mutagenic call (Species/Cell Type: Human, Assay Type: Sister-chromatid exchange (SCE) in vitro, Assay Code: SC1-, Evaluation Type: Evaluation B (Post-1980)): inactive; negative | mutagenic call [12]: inactive; negative | mutagenic call [13]: inactive; negative

CCCCO
mutagenic call (Species/Cell Type: Nonhuman, Assay Type: Sister-chromatid exchange (SCE) in vitro, Assay Code: SC2-, Evaluation Type: Evaluation A (Pre-1980)): inactive; negative | mutagenic call [13]: inactive; negative

O=NN1CCCC(O)C1 (centres undefined)
mutagenic call [9]: active; positive

C=CCc1ccc(O)c(OC)c1
mutagenic call [2]: no conclusion | mutagenic call (Species/Cell Type: Mammalian polychromatic erythrocytes, Assay Type: Micronucleus test, chromosome aberrations, Assay Code: MNT+, Evaluation Type: Evaluation B (Post-1980)): active; positive | mutagenic call (Species/Cell Type: Salmonella typhimurium, Assay Type: Forward and reverse gene mutation, host-mediated assay, Assay Code: HMAT, Evaluation Type: Evaluation A (Pre-1980)): no conclusion

O=c1ccc2cc3ccoc3cc2o1
mutagenic call (Species/Cell Type: Mammalian cell culture, nonhuman, Assay Type: Micronucleus test in vitro, chromosome aberrations, Assay Code: MN&+, Evaluation Type: Evaluation A (Pre-1980)): active; positive | mutagenic call (Species/Cell Type: Saccharomyces cerevisiae, Assay Type: Reverse gene mutation, Assay Code: YERT, Evaluation Type: Evaluation A (Pre-1980)): no conclusion

CCC=O
mutagenic call (Species/Cell Type: Human lymphocytes, Assay Type: Sister-chromatid exchange (SCE) in vitro, Assay Code: SCL+, Evaluation Type: Evaluation B (Post-1980)): active; positive | mutagenic call (Species/Cell Type: Human, Assay Type: Sister-chromatid exchange (SCE) in vitro, Assay Code: SC1+, Evaluation Type: Evaluation B (Post-1980)): active; positive

c1ccc2c(c1)ccc1nc3ccc4ccccc4c3cc12
mutagenic call (Species/Cell Type: Fischer rat embryo (RLV/1706) cells, Assay Type: Cell transformation, viral enhanced, Assay Code: CTR+, Evaluation Type: Evaluation A (Pre-1980)): active; positive | call [14]: active; positive | mutagenic call [9]: active; positive

N[C@@H](CC(=O)O)C(=O)O
mutagenic call (Species/Cell Type: Allium cepa, Assay Type: Chromosome aberrations, Assay Code: ALC+D, Dose Response: With dose response, Evaluation Type: Evaluation A (Pre-1980)): active; positive | mutagenic call (Species/Cell Type: Human, Sex: Male, Assay Type: Sperm morphology, Assay Code: SPH+, Evaluation Type: Evaluation A (Pre-1980)): active; positive

Cn1ccc(CO)c1
mutagenic call [1]: active; positive | mutagenic call [3]: active; positive

COc1ccc2c(c1)OC(C)(C)[C@@H](c1ccccc1)[C@@H]2c1ccc(OCCN2CCCC2)cc1
mutagenic call (Species/Cell Type: Human, Sex: Male, Assay Type: Sperm morphology, Assay Code: SPHT, Evaluation Type: Evaluation A (Pre-1980)): no conclusion

CCC(=O)Nc1ccc(Cl)c(Cl)c1
mutagenic call (Species/Cell Type: Aspergillus nidulans, Assay Type: Forward gene mutation, Assay Code: ASF-, Evaluation Type: Evaluation A (Pre-1980)): inactive; negative | mutagenic call (Species/Cell Type: Bacillus subtilis (H17 vs M45), Assay Type: Rec-assay, spot test, DNA effects (bacterial DNA repair), Assay Code: REW+, Evaluation Type: Evaluation A (Pre-1980)): active; positive | mutagenic call [15]: inactive; negative | mutagenic call [11]: inactive; negative | mutagenic call [12]: inactive; negative | mutagenic call [13]: inactive; negative

NC=O
mutagenic call (Species/Cell Type: Fischer rat embryo (RLV/1706) cells, Assay Type: Cell transformation, viral enhanced, Assay Code: CTR-, Evaluation Type: Evaluation A (Pre-1980)): inactive; negative | mutagenic call (Species/Cell Type: Hordeum vulgare (barley), Assay Type: Chromosome aberrations, Assay Code: HOC+, Evaluation Type: Evaluation A (Pre-1980)): active; positive

OCC(S)CS (centres undefined)
mutagenic call [15]: inactive; negative

ClC(Cl)(Cl)Cl
mutagenic call (Species/Cell Type: Mouse, Sex: Male, Assay Type: Sperm morphology, Assay Code: SPI-, Evaluation Type: Evaluation A (Pre-1980)): inactive; negative | call [14]: active; positive | mutagenic call [6]: active; positive | mutagenic call (Species/Cell Type: Saccharomyces cerevisiae, Assay Type: Mitotic recombination or gene conversion, Assay Code: YEH+, Evaluation Type: Evaluation A (Pre-1980)): active; positive | mutagenic call (Species/Cell Type: Saccharomyces cerevisiae, Assay Type: Reverse gene mutation, Assay Code: YER+, Evaluation Type: Evaluation A (Pre-1980)): active; positive | mutagenic call [13]: inactive; negative

Nc1nc(-c2ccc([N+](=O)[O-])o2)cs1
mutagenic call (Species/Cell Type: Escherichia coli WP2, Assay Type: Tryptophan reverse gene mutation, Assay Code: WP2+, Evaluation Type: Evaluation A (Pre-1980)): active; positive | mutagenic call (Species/Cell Type: Escherichia coli WP2 UVRA, Assay Type: Tryptophan reverse gene mutation, Assay Code: WPU-, Evaluation Type: Evaluation A (Pre-1980)): inactive; negative | mutagenic call (Species/Cell Type: Nonhuman, Assay Type: Sister-chromatid exchange (SCE) in vitro, Assay Code: SC2+D, Dose Response: With dose response, Evaluation Type: Evaluation B (Post-1980)): active; positive | mutagenic call (Species/Cell Type: Salmonella typhimurium (one or more of the five standard strains: TA98, TA100, TA1535, TA1537, and TA1538), Assay Type: Histidine reverse gene mutation, Ames assay, Assay Code: SAL+, Evaluation Type: Evaluation A (Pre-1980)): active; positive

OC[P+](CO)(CO)CO
mutagenic call [8]: no conclusion

CCCCCCCCCCCCCCCCCCOCC(O)COP(=O)([O-])OCC[N+](C)(C)C (centres undefined)
mutagenic call [8]: no conclusion

OCCCCO
mutagenic call [7]: no conclusion

CN(C)c1nc(N(C)C)nc(N(C)C)n1
mutagenic call [5]: active; positive

c1nncnn1
mutagenic call [10]: no conclusion

OCCc1ccccc1
mutagenic call [2]: no conclusion | mutagenic call [4]: no conclusion
